# From PMC12040169 (PLOS Biology, 2025)
# Test: in vitro
# Details: human, hela cells, % viability
row,SMILES,"viability at 28.5 h, 10 µM [%]"
1,O=C(CCCN1C(=O)c2cccc3cccc(c23)C1=O)NCc1cccnc1 [CBK262190],73.9
2,O=C(NC1CCNC1)c1ccc(F)cc1 (centres unmarked) [CBK281632],87.2
3,O=C(O)CN(c1ccc(F)cc1)S(=O)(=O)c1ccc2c(c1)OCCO2 [CBK287096],84.1
4,Nc1ncc(-c2ccncc2)nc1NCc1cccnc1 [CBK063879],103
5,Cc1ccc2nc(O)c(CNc3ccc(-c4nc5cc(C)ccc5[nH]4)cc3)cc2c1 [CBK286161],89.7
6,O=C1C2CCCCC2C(=O)N1CCCN1CCC(c2nc(-c3ccc(F)cc3)c3ccccn23)CC1 (centres unmarked) [CBK035972],90.1
7,Cn1ccnc1CN1C[C@@H]2CN(C(=O)C3CCCC3)C[C@]2(C(=O)O)C1 [CBK307201],102
8,c1ccc(C2(CN3CCN(Cc4cccnc4)CC3)CC2)cc1 [CBK282793],117
9,O=c1c2cc(OCc3ccc(Cl)cc3)ccc2nc2n1CCC2 [CBK287977],91.6
10,CC(CN(C)C)C(=O)c1ccsc1 (centres unmarked) [CBK025906],93
11,O=[N+]([O-])c1ccc(N2CCNCC2)cc1NCCO [CBK262851],75.1
12,O=C(Cn1cnc2c(cnn2-c2cccc(Cl)c2)c1=O)N1CCCCC1 [CBK287691],83.3
13,COc1ccc(Oc2cncc(OC3CCN(Cc4ccc(Cl)c(Cl)c4)C3)n2)cc1OC (centres unmarked) [CBK084391],115
14,CCc1ccc2c(c1)C(CCNC(=O)c1cscc1C(F)(F)F)C(=O)N2 (centres unmarked) [CBK304728],82.5
15,Cc1c(Cl)c(C(F)(F)F)nn1CCCNC(=S)Nc1ccc(S(N)(=O)=O)cc1 [CBK267113],100
16,N#C/C(C(=O)Nc1ccccc1)=C(/O)c1nn(-c2ccccc2)c2c1CSc1ccccc1-2 [CBK017685],92.7
17,O=C(CCCn1c(=O)[nH]c2ccsc2c1=O)Nc1ccc(F)cc1 [CBK287769],93.3
18,Cc1nn2cc(CNC(=O)CN3CCOc4ccccc4C3)nc2s1 [CBK306921],89
19,CCN(CCc1nc2cc(OC)ccc2[nH]1)C(=O)c1cc(C#N)cn1C [CBK306658],90.5
20,Cc1nccn1CCNC(=O)c1c2c(nn1C)CCCC2 [CBK281857],100
21,COc1cccc(Cc2cccc(C3CCN(C(=O)Cc4c[nH]c5ccccc45)CC3)n2)c1 [CBK286145],93.1

row,SMILES,"viability at 28.5 h, 10 µM [%]"
1,NS(=O)(=O)c1ccc(Nc2nc(-c3ccccc3)c(CC(=O)O)s2)cc1 [CBK131899],91.6
2,Cc1cc(COC(=O)N2CCSCC2)cc(C)n1 [CBK200153],107
3,Cc1cnc(CN2CCNC(=O)C2c2ccccc2C(F)(F)F)o1 (centres unmarked) [CBK306431],85.4
4,Cc1nc2c(c(=O)[nH]1)CN(Cc1ccc(-c3ccccc3)cc1)CC2 [CBK283952],99
5,COCC(=O)N1CCC(NC(=O)N(CCc2ccccc2)Cc2ccccc2)CC1 [CBK174877],102
6,Cc1noc(C)c1C(=O)N1CCCCCC1c1ccn(C)n1 (centres unmarked) [CBK284917],90.8
7,COc1ccc(Br)cc1S(=O)(=O)Nc1nc(C)c(C(=O)O)s1 [CBK045558],106
8,COc1ccccc1Cc1cccc(C2CCCN2C(=O)c2ccc(F)cc2)n1 (centres unmarked) [CBK286239],99.1
9,S=C(NCCCN1CCOCC1)Nc1cccc(Cl)c1 [CBK263255],95
10,O=C1Nc2cc(Cl)ccc2C(=O)N2CC[C@H](NS(=O)(=O)c3cccs3)[C@@H]12 [CBK289341],108
11,COc1ccc(-n2cnc3ccccc3c2=O)cc1 [CBK288145],94.4
12,CCOc1cccc(CNc2ccc(O)cc2)c1OCc1ccc(Cl)cc1Cl [CBK074528],106
13,c1ccc(CC2CCN(CCOc3ccccc3)CC2)cc1 [CBK126433],107
14,Oc1ccc(/N=N/c2cccc(Br)c2)cc1/C=N/c1ccc(-c2nc3ncccc3o2)cc1 [CBK262009],85.9
15,COC(=O)c1ncn(CC(=O)N2CCCCCC2)n1 [CBK305184],98.9
16,COc1ccc(CCN2C(=O)CC(N3CCN(Cc4ccc5c(c4)OCO5)CC3)C2=O)cc1OC (centres unmarked) [CBK074555],88
17,O=C(O)CCn1cc(Br)c([N+](=O)[O-])n1 [CBK286916],90
18,COc1ccc(CCN2CN=C(SCc3ccc(Cl)cc3)NC2)cc1OC [CBK074665C],95.3
19,CN(CC1(C)COC1)C(=O)CCc1nc2ccccc2[nH]1 [CBK281719],88.8
20,O=C(NCCc1ccccc1)c1nc(-c2ccncc2)cs1 [CBK288604],70
21,N#Cc1ccnc(N2CCC3(CCCN(CC4CCCCC4)C3=O)C2)c1 (centres unmarked) [CBK306561],96.9

row,SMILES,"viability at 28.5 h, 10 µM [%]"
1,COc1ccc(C(=O)NCC(=O)NCCOC(=O)c2c(-c3c(F)cccc3Cl)noc2C)cc1 [CBK007386],99.4
2,COCC(=O)N1CCN(C(=O)c2cccs2)[C@@H](C(=O)OC)C1 [CBK289614],111
3,Cc1nn(C)c(Cl)c1S(=O)(=O)Nc1cc(N2CCN(C(=O)OC(C)(C)C)CC2)c2occc2c1 [CBK067787],95.8
4,O=C1CNC(=O)C2(C/C=C/C[C@H]3COCC[C@H]3N1)CCN(Cc1cccc3[nH]ccc13)CC2 [CBK292073],110
5,O=C(CC1(O)C(=O)N(CN2CCOCC2)c2ccccc21)c1ccc2c(c1)OCO2 (centres unmarked) [CBK269639],99.3
6,O=C(O)Cc1ccc(NC(=O)c2cccnc2C(=O)O)cc1 [CBK267397],97.2
7,O=S(=O)(Cc1cc(Cl)ccc1C(F)(F)F)c1cc2c(N3CCNCC3)nccc2s1 [CBK049960C],115
8,COC(=O)c1c(N=C(S)Nc2ccc(CC(=O)O)cc2)sc(C)c1C [CBK267111],96.4
9,CCCCN1CCC2CN(CCCC(c3ccc(F)cc3)c3ccc(F)cc3)CCN2C1=O (centres unmarked) [CBK024880C],99.5
10,CCc1nn(CC(=O)N2CCCCC2C)c(=O)c2cc3occc3n12 (centres unmarked) [CBK283676],67.5
11,O=C(CC1Nc2cccc3cccc(c23)NC1=O)Nc1ccccc1 (centres unmarked) [CBK268035],87.2
12,OCC(O)/C=N/Nc1nc(Nc2ccccc2)nc(N2CCCCC2)n1 (centres unmarked) [CBK262042],107
13,O=C1COc2ccccc2C/C=C/C[C@H]2CN(C(=O)CN3CCCCCC3=O)CC[C@H]2N1 [CBK292116],89.7
14,NS(=O)(=O)c1ccc(C(=O)Nc2cccc3cc[nH]c23)cc1 [CBK160094],94.8
15,CCN1CCN(c2ccc3nnc(C(C)C)n3n2)CC1 [CBK287974],88.3
16,Cc1c(C(=O)N(C)CC(C)C)nnn1-c1ccc2ncccc2c1 [CBK305161],102
17,O=C(CSc1nc2cc(Cl)ccc2[nH]1)Nc1ccccc1F [CBK269916],84.8
18,COC(=O)c1c(NC(=S)Nc2cccc(S(=O)(=O)N3CCOCC3)c2)sc2c1CCC2 [CBK267054],93.8
19,Cc1cc(C(=O)Nc2cc(-c3nc4ncccc4o3)ccc2Cl)ccc1[N+](=O)[O-] [CBK268700],95.1

# Same assay, conditions: human, hela cells, % viability, bulk resorufin, single well
row,SMILES,"viability at 28.5 h, 10 µM [%]"
1,COc1ccc(N2C(=O)NC(=O)/C(=C/c3cn(CC(=O)Nc4ccccc4)c4ccccc34)C2=O)cc1 [CBK263547],110
